Experiment: in vitro
Settings: human, hela cells, % viability

CC1Cc2cc(C(O)CN3CCC(O)(c4ccccc4F)CC3)ccc2N1S(C)(=O)=O (centres unmarked) [CBK283091]
viability at 28.5 h, 10 µM: 87.5%

c1ccc(CCCNc2ncc(-c3ccc(N4CCOCC4)cc3)n3ccnc23)cc1 [CBK091223]
viability at 28.5 h, 10 µM: 112%

CC(=O)N1Cc2cc(C)ccc2OC2(CCCN(CC3CC3)C2)C1 (centres unmarked) [CBK285104]
viability at 28.5 h, 10 µM: 88.7%

Cc1cc(F)c(S(N)(=O)=O)cc1NC(=O)CN1CCOCC1 [CBK051649C]
viability at 28.5 h, 10 µM: 104%

O=S(=O)(c1ccc(-c2ccccc2)cc1)N1CCCN(Cc2cccc(F)c2F)CC1 [CBK063111]
viability at 28.5 h, 10 µM: 113%

NC(=O)C[S+]([O-])C(c1ccccc1)c1ccccc1 (centres unmarked) [CBK026184]
viability at 28.5 h, 10 µM (bulk resorufin, single well): 102%

Cc1[nH]c2cccc(C(=O)N3CCCCC3CCNC(=O)c3ccccc3)c2c1C (centres unmarked) [CBK285976]
viability at 28.5 h, 10 µM: 82%

O=C(CO)N1CC2(CCN(CCO)CC2)c2ccccc21 [CBK131507]
viability at 28.5 h, 10 µM: 79.7%

O=C(Nc1cc2cccnc2nc1Cl)c1ccc(C(F)(F)F)cc1[N+](=O)[O-] [CBK091348]
viability at 28.5 h, 10 µM: 89.9%

O=C(C1CC1)N1CC2CN(Cc3ccccc3)CC2C12CCOCC2 (centres unmarked) [CBK283055]
viability at 28.5 h, 10 µM: 103%

COc1ncc(-c2nccnc2N[C@@H]2CCN(Cc3ccccc3)C2)c(OC)n1 [CBK036926]
viability at 28.5 h, 10 µM: 101%

O=C1CC2(C(=O)N1Cc1ccccc1)C(=O)N(Cc1csc(-c3ccccc3)n1)c1ccccc12 (centres unmarked) [CBK075673]
viability at 28.5 h, 10 µM: 112%

COc1ccc(C(=O)NCCCCCC(=O)O)cc1 [CBK287146]
viability at 28.5 h, 10 µM: 109%

Cn1c(CN2CCOCC2)nnc1SCC(=O)Nc1cccc(F)c1 [CBK269629]
viability at 28.5 h, 10 µM: 80.2%

Cc1[nH]nc(O)c1Cc1ccccc1F [CBK105306]
viability at 28.5 h, 10 µM: 97.1%

Cc1ccccc1NC(=O)c1cnn2cccnc12 [CBK288217]
viability at 28.5 h, 10 µM: 90.3%

Cc1cc(Cl)c(S(=O)(=O)Nc2ccc(C#N)cc2)cc1OCC(N)=O [CBK266560]
viability at 28.5 h, 10 µM: 112%

NC(=O)c1c(NC(=S)NC(NC(=O)c2ccco2)C(Cl)(Cl)Cl)sc2c1CCCC2 (centres unmarked) [CBK261055]
viability at 28.5 h, 10 µM: 103%

CCOC(=O)CNC(=O)c1cc(Br)c(OC)c(OC)c1 [CBK058454]
viability at 28.5 h, 10 µM: 116%

CC(NC(C)(C)C)C(O)COc1ccc(Cl)c2c1C1CCC2CC1 (centres unmarked) [CBK017752C]
viability at 28.5 h, 10 µM: 89.6%

COc1ccc(CN2C(=O)CO[C@H]3CN(C(=O)COc4ccccc4)C[C@H]32)cc1 [CBK289262]
viability at 28.5 h, 10 µM: 108%

CN1CCCN(c2nccnc2-c2cccc(O)c2)CC1 [CBK088820]
viability at 28.5 h, 10 µM: 112%

c1ccc2cc(-c3ccc4c(c3)COC3(CCNCC3)O4)ccc2c1 [CBK060949]
viability at 28.5 h, 10 µM (bulk resorufin, single well): 88%

CC(=O)Nc1ccc(-c2cncc(N3CCN(C(=O)c4ccco4)CC3)n2)cc1 [CBK066065]
viability at 28.5 h, 10 µM: 99.3%

O=C(NCc1ccccn1)C(=O)N/N=C/c1ccccc1[N+](=O)[O-] [CBK262204]
viability at 28.5 h, 10 µM: 96.4%

CCNC(=O)Nc1ccc(-c2ccc3c(c2)OCCCO3)c2ccccc12 [CBK083726]
viability at 28.5 h, 10 µM: 89.4%

CC(Oc1cccc2ccccc12)C(=O)N/N=C/c1ccc(Cl)cc1Cl (centres unmarked) [CBK262218]
viability at 28.5 h, 10 µM: 97%

c1cnn(C2CCN(Cc3ccc(Oc4cnccn4)cc3)CC2)c1 [CBK306417]
viability at 28.5 h, 10 µM: 85.7%

O=C(NCc1cccnc1)C(=O)Nc1ccc(F)cc1F [CBK269481]
viability at 28.5 h, 10 µM: 101%

O=C(Nc1ccccc1[N+](=O)[O-])C(c1ccccc1)N1CCOCC1 (centres unmarked) [CBK269390]
viability at 28.5 h, 10 µM: 94%

Cc1cc(C)cc(OCc2nnc(SCC(=O)N3CCN(c4ccccc4)CC3)o2)c1 [CBK268012]
viability at 28.5 h, 10 µM: 96.7%

CC1(C(=O)N2CCc3onc(-c4ccccc4F)c3C2)CCCO1 (centres unmarked) [CBK282660]
viability at 28.5 h, 10 µM: 88.1%

Cc1ccc2c(c1)CCCN2C(=O)c1cccnc1NCc1ccc2c(c1)OCO2 [CBK160113]
viability at 28.5 h, 10 µM: 94.5%

C=Cn1ncc(CN(C)Cc2nc3ccccc3[nH]2)c1C [CBK283170]
viability at 28.5 h, 10 µM: 91.6%

O=c1c(-c2ccco2)[n+]([O-])c2ccccc2n1OCc1ccccn1 [CBK266570]
viability at 28.5 h, 10 µM: 91.8%

Source: PMC12040169 (PLOS Biology, 2025)
